US20140348861A1, “SYNTHETIC PEPTIDES AND RANDOM COPOLYMERS FOR THE TREATMENT OF AUTOIMMUNE DISORDERS” (NATIONAL INSTITUTE OF IMMUNOLOGY, priority 2011, published 2014)
Non-standard residues stand in square brackets, D forms with d. No end group written: not given here. β3hY = N[C@H](CC(=O)O)Cc1ccc(O)cc1; β3hK = NCCCC[C@H](N)CC(=O)O; β3hV = CC(C)[C@H](N)CC(=O)O; β3hA = C[C@H](N)CC(=O)O

Columns and labels:
[1] = test system: relapsing remitting EAE in SJL/J mice; assay: Prophylactic (pre-treatment) efficacy in relapsing remitting EAE; format: in vivo; details: pre-treatment 0.5 mg in IFA; FIG. 2i
Description: (§1) To induce RR EAE or chronic progressive EAE, SJL/J or C57BL6/J mice were immunized subcutaneously with 0.2 mg of MBP (85-109) or 0.1 mg MOG (35-55) emulsified in CFA and 200 ng of pertussis toxin was injected intraperitoneally on day 0 and day 2 so as to permeablize the blood brain barrier. All the animals in various experimental groups were scored daily for clinical disability on a scale of 0-6 where 0=no neurological symptoms, 1=limp tail, 2=weakness of hind limbs or ataxia, 3=incomplete paralysis of hind limbs, 4=complete paralysis of hind limbs, 5=complete paralysis of all four limbs, 6=dead. Diseased animals were provided easy access to food and water.

[2] = in vivo; cited from earlier work
spleenocytes = assay: Th1/Th2 cytokine levels in culture supernates of spleenocytes from treatment groups; format: cell-based, mice; details: spleenocytes at the end of four weeks, FIG. 4; for decrease in IFN-γ levels: stimulated 48 h
Description: Levels of various cytokines in culture supernates were determined by sandwich ELISA using multiplex cytokine ELISA kit (Millipore). Briefly, 100 μl of cell culture supernates from various groups were incubated with antibody (against various pro and anti-inflammatory cytokines) coated fluorescent polystyrene beads in 96 well microtiter plates, stained with PE-conjugated secondary antibody, provided in the kit and samples were acquired on […] (Bio-rad).
Effect of a group of analogs comprising analogs viz.
Effect of β^3-homo amino acid containing copolymers viz S101, S102 and S103 on Th1/Th2 cytokine balance was studied in comparison to other copolymers viz. GA, J91, J92, for which culture supernates of spleenocytes grown in the presence of various copolymers, were assayed using ELISA to determine the levels of various cytokines. […] Most noteworthy change was in the levels of IL-2 in the S101, S102 and S103 treated groups, where the levels were brought down by 60-70%.

[3] = test system: SJL/J mice exhibiting MBP (85-109) induced relapsing remitting form of EAE; assay: Therapeutic activity in MBP (85-109) induced relapsing remitting EAE, treatment from day 11; format: in vivo; details: for Therapeutic activity in comparison to GA (Therapeutic activity (Analogs) − Therapeutic activity GA) / Therapeutic activity in comparison to J5 (Therapeutic activity (Analogs) − Therapeutic activity (J5)) / Therapeutic activity = % reduction in cumulative clinical disability score: SJL/J mice, RR EAE; for Therapeutic activity in comparison to GA (Therapeutic activity (Analogs) − Therapeutic activity GA) / Therapeutic activity in comparison to J5 (Therapeutic activity (Analogs) − Therapeutic activity (J5)): 0.1 mg daily for two weeks
Summary of the method: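 Female SJL/J mice, 8-10 weeks, immunized s.c. with 0.2 mg MBP (85-109) in CFA plus 200 ng pertussis toxin i.p. on days 0 and 2. Treatment ran from day 11 for two weeks. Clinical disability was scored daily on a 0-6 scale.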

HLA DR2 = target: T1, HLA DR2 (Homo sapiens, UniProt P01903+P01911); assay: Inhibition of binding of biotinylated MBP (85-99) to HLA DR2; details: 5 μM competitor, 0.5 μM biotinylated MBP (85-99); FIG. 3
T1 construct: endogenous in cells; host or cells: MGAR lymphoblastoid B cell line (IHWG, Seattle)
Description: HLA DR2 molecules were affinity purified from MGAR (a lymphoblastoid B cell line expressing HLA DR2 obtained from IHWG, Seattle, Wash. —USA) cell line. Cells were cultured in RPMI 1640 supplemented with 10% FBS, 2 mM glutamine, 50 U/ml penicillin and 50 μg/ml streptomycin. The anti-DR antibody L243 was purchased from Santacruz Biotech.
HLA DR2 was purified to a purity of 90-95% by immunoaffinity purification. Briefly, MGAR cells were detergent solubilized to prepare the membrane fraction which was passed sequentially through sepharose CL-6B, normal mouse serum-affinity-gel, Protein A sepharose CL-4B and L243-protein A sepharose-CL-4B at a flow rate of around 10-11 ml/h. The final eluate was dialyzed against 0.1% deoxycholate, 10 mM Tris-HCl (pH 8.0) and concentrated using centricon concentrators from Millipore. Protein concentration was determined using bicinchoninic acid (BCA) assay (Sigma). The obtained protein fraction was also run on SDS-PAGE gel to confirm identity and purity.
Copolymers (GA, J91, J92, S101 to S109) and peptide analogs (S1-S82) at a final concentration of 5 μM were coincubated with biotinylated MBP (85-99; purchased from Bioconcept Labs Pvt. Ltd. India) at a final concentration of 0.5 μM and HLA DR2 (0.5 μg/sample) molecules for 40 h at 37° C. and transferred to a 96-well microtiter assay plates coated with 1 μg/well purified L243 mAb. Coating of microtiter plates was performed with 100 μl of L243 mAb in PBS for 18 h at 4° C. […] 3,3′,5,5′-tetramethylbenzidine (TMB, substrate for […]) was added to each well and absorbance at 410 nm was recorded on an ELISA reader (TECAN infinite M200).
Ability of analogs viz. […] Most of the analogs designed herein viz.
β^3-homo amino acid containing copolymers viz. […] Copolymers containing β^3-homo amino acids viz.

[4] = test system: MOG (35-55) induced chronic progressive EAE in C57BL6/J mice; assay: Therapeutic effect in MOG (35-55) induced chronic progressive EAE; format: in vivo; details: daily dose of 5 mg/Kg body weight, FIGS. 2e and 2f
Description: as §1
Some analogs viz. […] Dosage kinetic experiments with analog S27 representing the group of analogs comprising viz.

[5] = test system: MBP (85-109) reactive CD4+ and CD8+ T-cells; assay: Recall (proliferative) response of CD4+ and CD8+ T-cells to MBP (85-109) after pre-treatment; format: cell-based, mice
Description: Spleen derived dendritic cells were isolated to >95% purity using plasmacytoid dendritic cell isolation kit from Miltenyi Biotech. Spleenocytes were isolated from spleen of SJL/J mice, minced and passed through a 70 micron cell strainer (BD Falcon) to get a single cell suspension. The resulting spleenocytes were first depleted of CD3+ T cells and CD 49b/pan NK+ cells using LD depletion columns provided in the kit. The CD3 and CD 49b negative cell population was collected, counted and positive selection of CD11c+ dendritic cells was performed on positive selection columns provided in the kit. The CD11c+ population was collected by removing the column from the magnetic stand, stained with trypan blue to check the viability and purity was determined using flow cytometry.
After two weeks spleenocytes were isolated, fractioned into CD4+ and CD8+ T-cells, cultured with MBP (85-109) pulsed spleen derived dendritic cells and assayed for proliferation (^3[H]-thymidine). […] As recall response to MBP (85-109) is a direct measure of frequencies of MBP (85-109) reactive CD4+ or CD8+ T-cells, in the immunized animals.

[6] = test system: MOG (35-55) induced chronic EAE in C57BL6/J mice; assay: Prophylactic (pre-treatment) efficacy in MOG (35-55) induced chronic EAE; format: in vivo; details: FIGS. 2j and 2k
Description: as §1

[7] = synthetic peptides, 0.1 mg daily for two weeks from day 11 post-immunization

T1 sequence (P01903 26-254): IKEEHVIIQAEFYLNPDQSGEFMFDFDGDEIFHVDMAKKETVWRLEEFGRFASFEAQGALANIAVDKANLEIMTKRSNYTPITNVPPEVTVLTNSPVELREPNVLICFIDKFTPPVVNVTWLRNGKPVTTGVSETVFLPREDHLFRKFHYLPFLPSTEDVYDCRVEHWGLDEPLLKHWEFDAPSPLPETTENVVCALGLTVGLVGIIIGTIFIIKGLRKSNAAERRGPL
T1 sequence (P01911 30-266): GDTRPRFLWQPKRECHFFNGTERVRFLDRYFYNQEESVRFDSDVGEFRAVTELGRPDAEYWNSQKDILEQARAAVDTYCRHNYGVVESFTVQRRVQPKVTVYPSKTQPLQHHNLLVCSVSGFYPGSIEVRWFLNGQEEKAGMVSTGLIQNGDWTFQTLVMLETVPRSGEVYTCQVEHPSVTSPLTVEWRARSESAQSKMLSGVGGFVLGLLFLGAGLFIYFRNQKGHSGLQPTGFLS

Row | inhibition of binding of biotinylated MBP (85-99) to HLA DR2 (HLA DR2) | Substance | effect on clinical onset of disease [1] | success rate in reducing the relapses [2] [%] | decrease in IFN-γ levels (spleenocytes) | rise in IL-4 levels (spleenocytes) [fold] | Therapeutic activity in comparison to GA (Therapeutic activity (Analogs) − Therapeutic activity GA) [3] [%] | Therapeutic activity in comparison to J5 (Therapeutic activity (Analogs) − Therapeutic activity (J5)) [3] [%] | Therapeutic activity = % reduction in cumulative clinical disability score ([3]; amino acid copolymers, 0.1 mg daily for two weeks from day 11) [%] | Therapeutic activity = % reduction in cumulative clinical disability score [3, 7] [%] | change in IL-4 levels (spleenocytes) | reduction in clinical disability score [4] [%] | delay of clinical onset of disease [1] [days] | duration of effect once the treatment is stopped ([3]; FIG. 2b) | efficacy relative to GA ([3]; both treatment and pre-treatment scenarios) | optimum daily dosage ([3]; dosage kinetic experiments, rodents, FIGS. 2c and 2d) [mg/kg body weight] | recall response to MBP (85-109), CD4+ T-cell fraction (3[H]-thymidine proliferation) ([5]; 0.5 mg in IFA a day before immunization, spleenocytes after two weeks, FIG. 1a) | recall response to MBP (85-109), CD8+ T-cell fraction, suppression compared to J5 or GA treated group ([5]; 0.5 mg in IFA a day before immunization, spleenocytes after two weeks, FIG. 1b) | recall response to purified protein derivative (PPD) ([5]; specificity control antigen, FIGS. 1a and b) | suppression after pre-treatment [6]
1 | ~21% | Glatiramer Acetate [GA, reference compound] | no effect on clinical onset of disease | 30 | approximately 70% | ~2 | 0 | −3.957 | 27.12 | 31.3369 | – | – | – | – | – | – | – | – | – | –
2 | – | EKPKVEAYKAAAAPA [Analog J5, reference compound] | no effect on clinical onset of disease | – | – | – | 3.957 | 0 | – | 35.29 | only a marginal increase | – | – | – | – | – | – | – | – | –
3 | ~15% | FPFNVPTNIVKVERH (Peptide analog) [scrambled MBP (85-99)] | – | – | – | – | – | – | – | – | – | – | – | – | – | – | – | – | – | –

Row | Substance | inhibition of binding of biotinylated MBP (85-99) to HLA DR2 (HLA DR2) | effect on clinical onset of disease [1] | success rate in reducing the relapses [2] [%] | decrease in IFN-γ levels (spleenocytes) | rise in IL-4 levels (spleenocytes) [fold] | Therapeutic activity in comparison to GA (Therapeutic activity (Analogs) − Therapeutic activity GA) [3] [%] | Therapeutic activity in comparison to J5 (Therapeutic activity (Analogs) − Therapeutic activity (J5)) [3] [%] | Therapeutic activity = % reduction in cumulative clinical disability score ([3]; amino acid copolymers, 0.1 mg daily for two weeks from day 11) [%] | Therapeutic activity = % reduction in cumulative clinical disability score [3, 7] [%] | change in IL-4 levels (spleenocytes) | reduction in clinical disability score [4] [%] | delay of clinical onset of disease [1] [days] | duration of effect once the treatment is stopped ([3]; FIG. 2b) | efficacy relative to GA ([3]; both treatment and pre-treatment scenarios) | optimum daily dosage ([3]; dosage kinetic experiments, rodents, FIGS. 2c and 2d) [mg/kg body weight] | recall response to MBP (85-109), CD4+ T-cell fraction (3[H]-thymidine proliferation) ([5]; 0.5 mg in IFA a day before immunization, spleenocytes after two weeks, FIG. 1a) | recall response to MBP (85-109), CD8+ T-cell fraction, suppression compared to J5 or GA treated group ([5]; 0.5 mg in IFA a day before immunization, spleenocytes after two weeks, FIG. 1b) | recall response to purified protein derivative (PPD) ([5]; specificity control antigen, FIGS. 1a and b) | suppression after pre-treatment [6]
4 | Kβ^3Vβ^3Eβ^3Aβ^3Yβ^3Kβ^3Aβ^3Aβ^3Aβ^3Aβ^3 ([β3hK][β3hV]X[β3hA][β3hY][β3hK][β3hA][β3hA][β3hA][β3hA]; not fully specified (residue 3); printed as Kβ^3Vβ^3Eβ^3Aβ^3Yβ^3Kβ^3Aβ^3Aβ^3Aβ^3Aβ^3) [Analog S27] | approximately 60% | – | – | approximately 70% | – | 33.8 | 29.84 | – | 65.13 | only a marginal increase | ~60 | ~3 | up to two weeks | approximately two times better | 5 | considerable suppression | much more pronounced | remained unaffected | 55-60%
